*1 amine or outer side, *2 acyl side, *3 side chain or, on linkers, in order; H or OH if unused. Where a SMILES comes first, the peptide text is derived from it. Bridges are numbered along the chain shown (N, C = ends). [ ]: non-standard residue; d: D form. The star is where a group is joined. NH(1-deoxy-D-glucityl) = OC[C@@H](O)[C@@H](O)[C@H](O)[C@@H](O)CN*; DOTA = O=C(O)CN1CCN(CC(=O)O)CCN(CC(=O)*)CCN(CC(=O)O)CC1; Trp(5-Br) = N[C@@H](Cc1c[nH]c2ccc(Br)cc12)C(=O)O; Trp(5-Cl) = N[C@@H](Cc1c[nH]c2ccc(Cl)cc12)C(=O)O; Pyridine(2,6-diCH2) = c1cc(C[*:1])nc(C[*:2])c1; Pro(4R-NH2) = N[C@H]1CN[C@H](C(=O)O)C1; Glutaryl = O=C(CCCC(=O)[*:2])[*:1]; PEG6 = NCCOCCOCCOCCOCCOCCOCCC(=O)O; X1 = O=C(CN1CCC(N[*:1])CC1)[*:2]; Suc = O=C(CCC(=O)[*:2])[*:1]; hSer = N[C@@H](CCO)C(=O)O; Api = NC1(C(=O)O)CCNCC1; Thp = NC1(C(=O)O)CCOCC1; AEEA = NCCOCCOCC(=O)O

The results in this text go back to US20250296971A1, “GASTRIC INHIBITORY PEPTIDE RECEPTOR LIGANDS” (priority 2021, published 2025).

The target of the first experiment is T1, GIPR (CHO-K1-hGIPR cells) (Homo sapiens, UniProt P48546).
T1 construct: host or cells: CHO-K1
T1 sequence (P48546 22-466): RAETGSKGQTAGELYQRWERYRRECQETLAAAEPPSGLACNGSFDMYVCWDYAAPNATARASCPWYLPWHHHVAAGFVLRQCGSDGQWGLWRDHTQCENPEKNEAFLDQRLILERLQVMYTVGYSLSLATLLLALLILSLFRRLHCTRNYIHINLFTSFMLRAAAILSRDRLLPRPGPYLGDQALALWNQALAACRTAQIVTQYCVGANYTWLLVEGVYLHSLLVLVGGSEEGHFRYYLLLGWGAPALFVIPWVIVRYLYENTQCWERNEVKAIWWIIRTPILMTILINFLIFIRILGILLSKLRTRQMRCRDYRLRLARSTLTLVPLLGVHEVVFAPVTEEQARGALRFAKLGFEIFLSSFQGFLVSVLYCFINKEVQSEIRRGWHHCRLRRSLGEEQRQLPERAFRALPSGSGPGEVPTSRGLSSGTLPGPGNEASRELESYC
Briefly: FACS binding assay. The conditions noted are these: competition with 20 nM GIP-057, 4° C., 1 hour, read-out: pIC50 Category (converted). Here is the method:
In order to determine binding of compounds according to the present invention to GIPR-expressing cells, a FACS binding assay was established.
CHO-K1-hGIPR cells (GenScript Biotech, #M00486) were cultured in Ham's F12 medium (Sigma-Aldrich, #N4888) including 10% fetal calf serum (FCS), 2 mM L-glutamine, 100 U/mL penicillin, 100 μg/mL streptomycin, 200 μg/mL Zeocin and 100 μg/mL HygromycinB. Cells were detached with Accutase (Biolegend, #BLD-423201) and washed in FACS buffer (PBS including 1% FCS). Cells were diluted in FACS buffer to a final concentration of 500.000 cells per mL. 200 μL of the cell suspension were transferred to a u-shaped non-binding 96-well plate (Greiner) and cells were washed in ice-cold FACS buffer.
Cells were washed twice in FACS buffer. An additional incubation step with 1 μg/mL APC-Streptavidin (Miltenyi; #130-106-791) in 50 μL FACS buffer for 30 min on ice was performed followed by two washes with FACS buffer.
Cells were analyzed in an Attune NxT flow cytometer. Median fluorescence intensities (MFI) of the APC/Cy5-channel were calculated by Attune NxT software. MFI values were plotted against peptide concentration and four parameter logistic (4PL) curve fitting and EC50/pEC50 or IC50/pIC50 calculations were performed using ActivityBase software.
Take `CC[C@H](C)[C@@H]1NC(=O)[C@H](CC(C)C)NC(=O)C2(CCN(C(=O)CN3CCN(CC(=O)O)CCN(CC(=O)O)CCN(CC(=O)O)CC3)CC2)NC(=O)[C@@H](NC(=O)[C@@H](CC(C)C)NC(=O)[C@H](CCC(=O)O)NC(=O)[C@@H]2C[C@@H](N)CN2C(=O)[C@H](Cc2c[nH]c3ccc(Br)cc23)NC(=O)[C@H](Cc2c[nH]c3ccccc23)NC(=O)[C@H](CC(=O)O)NC(=O)CCCC(=O)NC[C@H](O)[C@@H](O)[C@H](O)[C@H](O)CO)CSCc2cccc(n2)CSC[C@@H](C(=O)NC2CCN(CC(=O)N[C@H](CCC(=O)NC[C@H](O)[C@@H](O)[C@H](O)[C@H](O)CO)C(N)=O)CC2)NC1=O` [GIP-015, AGLU-Glutar-Asp-Trp-5Brw-Tap-Glu-leu-[Cys(2Lut)-Apc(DOTA)-Leu-Ile-Cys]-APAc-glu(AGLU)-NH2] ({NH(1-deoxy-D-glucityl)-Glutaryl}-DW[Trp(5-Br)][Pro(4R-NH2)]E[dL]C[Api](DOTA)LIC[X1][dE](NH(1-deoxy-D-glucityl))-NH2; linker 7-11 via Pyridine(2,6-diCH2)): the IC50 is below 10 nM. On to `CC[C@H](C)[C@@H]1NC(=O)[C@H](CC(C)C)NC(=O)C2(CCN(C(=O)CN3CCN(CC(=O)O)CCN(CC(=O)O)CCN(CC(=O)O)CC3)CC2)NC(=O)[C@@H](NC(=O)[C@@H](CC(C)C)NC(=O)[C@H](CCC(=O)O)NC(=O)[C@@H]2C[C@@H](N)CN2C(=O)[C@H](Cc2c[nH]c3ccc(Br)cc23)NC(=O)[C@H](Cc2c[nH]c3ccccc23)NC(=O)[C@H](CCO)NC(=O)CCCC(=O)NC[C@H](O)[C@@H](O)[C@H](O)[C@H](O)CO)CSCc2cccc(n2)CSC[C@@H](C(=O)NC2CCN(CC(=O)N[C@H](CCC(=O)NC[C@H](O)[C@@H](O)[C@H](O)[C@H](O)CO)C(N)=O)CC2)NC1=O` [GIP-016, AGLU-Glutar-Hse-Trp-5Brw-Tap-Glu-leu-[Cys(2Lut)-Apc(DOTA)-Leu-Ile-Cys]-APAc-glu(AGLU)-NH2] ({NH(1-deoxy-D-glucityl)-Glutaryl}-[hSer]W[Trp(5-Br)][Pro(4R-NH2)]E[dL]C[Api](DOTA)LIC[X1][dE](NH(1-deoxy-D-glucityl))-NH2; linker 7-11 via Pyridine(2,6-diCH2)), for which the IC50 was below 10 nM. Take `CC[C@H](C)[C@@H]1NC(=O)[C@H](CC(C)C)NC(=O)C2(CCOCC2)NC(=O)[C@@H](NC(=O)[C@@H](CC(C)C)NC(=O)[C@H](CCC(=O)O)NC(=O)[C@@H]2C[C@@H](N)CN2C(=O)[C@H](Cc2c[nH]c3ccc(Cl)cc23)NC(=O)[C@H](Cc2c[nH]c3ccccc23)NC(=O)[C@H](CC(=O)O)NC(=O)[C@@H](CCC(=O)NC[C@H](O)[C@@H](O)[C@H](O)[C@H](O)CO)NC(=O)COCCOCCNC(=O)CN2CCN(CC(=O)O)CCN(CC(=O)O)CCN(CC(=O)O)CC2)CSCc2cccc(n2)CSC[C@@H](C(=O)NC2CCN(CC(=O)N[C@H](CCC(=O)NC[C@H](O)[C@@H](O)[C@H](O)[C@H](O)CO)C(N)=O)CC2)NC1=O` [GIP-018, DOTA-O2Oc-glu(AGLU)-Asp-Trp-5Clw-Tap-Glu-leu-[Cys(2Lut)-Thp-Leu-Ile-Cys]-APAc-glu(AGLU)-NH2] ({DOTA-AEEA}-[dE](NH(1-deoxy-D-glucityl))DW[Trp(5-Cl)][Pro(4R-NH2)]E[dL]C[Thp]LIC[X1][dE](NH(1-deoxy-D-glucityl))-NH2; linker 8-12 via Pyridine(2,6-diCH2)): the IC50 was below 10 nM. On to `CC[C@H](C)[C@@H]1NC(=O)[C@H](CC(C)C)NC(=O)C2(CCOCC2)NC(=O)[C@@H](NC(=O)[C@@H](CC(C)C)NC(=O)[C@H](CCC(=O)O)NC(=O)[C@@H]2C[C@@H](N)CN2C(=O)[C@H](Cc2c[nH]c3ccc(Cl)cc23)NC(=O)[C@H](Cc2c[nH]c3ccccc23)NC(=O)[C@H](CC(=O)O)NC(=O)CCOCCOCCOCCOCCOCCOCCNC(=O)[C@@H](CCC(=O)NC[C@H](O)[C@@H](O)[C@H](O)[C@H](O)CO)NC(=O)CN2CCN(CC(=O)O)CCN(CC(=O)O)CCN(CC(=O)O)CC2)CSCc2cccc(n2)CSC[C@@H](C(=O)NC2CCN(CC(=O)N[C@H](CCC(=O)NC[C@H](O)[C@@H](O)[C@H](O)[C@H](O)CO)C(N)=O)CC2)NC1=O` [GIP-019, DOTA-glu(AGLU)-PEG6-Asp-Trp-5Clw-Tap-Glu-leu-[Cys(2Lut)-Thp-Leu-Ile-Cys]-APAc-glu(AGLU)-NH2] ({DOTA}-[dE](NH(1-deoxy-D-glucityl))[PEG6]DW[Trp(5-Cl)][Pro(4R-NH2)]E[dL]C[Thp]LIC[X1][dE](NH(1-deoxy-D-glucityl))-NH2; linker 9-13 via Pyridine(2,6-diCH2)), for which the IC50 was below 10 nM. Regarding `CC[C@H](C)[C@@H]1NC(=O)[C@H](CC(C)C)NC(=O)C2(CCOCC2)NC(=O)[C@@H](NC(=O)[C@@H](CC(C)C)NC(=O)[C@H](CCC(=O)O)NC(=O)[C@@H]2C[C@@H](N)CN2C(=O)[C@H](Cc2c[nH]c3ccc(Cl)cc23)NC(=O)[C@H](Cc2c[nH]c3ccccc23)NC(=O)[C@H](CC(=O)O)NC(=O)COCCOCCNC(=O)[C@@H](CCC(=O)NC[C@H](O)[C@@H](O)[C@H](O)[C@H](O)CO)NC(=O)CN2CCN(CC(=O)O)CCN(CC(=O)O)CCN(CC(=O)O)CC2)CSCc2cccc(n2)CSC[C@@H](C(=O)NC2CCN(CC(=O)N[C@H](CCC(=O)NC[C@H](O)[C@@H](O)[C@H](O)[C@H](O)CO)C(N)=O)CC2)NC1=O` [GIP-020, DOTA-glu(AGLU)-O2Oc-Asp-Trp-5Clw-Tap-Glu-leu-[Cys(2Lut)-Thp-Leu-Ile-Cys]-APAc-glu(AGLU)-NH2] ({DOTA}-[dE](NH(1-deoxy-D-glucityl))[AEEA]DW[Trp(5-Cl)][Pro(4R-NH2)]E[dL]C[Thp]LIC[X1][dE](NH(1-deoxy-D-glucityl))-NH2; linker 9-13 via Pyridine(2,6-diCH2)), the IC50 was below 10 nM. As for `CC[C@H](C)[C@@H]1NC(=O)[C@H](CC(C)C)NC(=O)C2(CCN(C(=O)CN3CCN(CC(=O)O)CCN(CC(=O)O)CCN(CC(=O)O)CC3)CC2)NC(=O)[C@@H](NC(=O)[C@@H](CC(C)C)NC(=O)[C@H](CCC(=O)O)NC(=O)[C@@H]2C[C@@H](N)CN2C(=O)[C@H](Cc2c[nH]c3ccc(Cl)cc23)NC(=O)[C@H](Cc2c[nH]c3ccccc23)NC(=O)CCC(=O)O)CSCc2cccc(n2)CSC[C@@H](C(=O)NC2CCN(CC(=O)N[C@H](CCC(=O)NC[C@H](O)[C@@H](O)[C@H](O)[C@H](O)CO)C(N)=O)CC2)NC1=O` [GIP-023, HO-Succinyl-Trp-5Clw-Tap-Glu-leu-[Cys(2Lut)-Apc(DOTA)-Leu-Ile-Cys]-APAc-glu(AGLU)-NH2] (Suc-W[Trp(5-Cl)][Pro(4R-NH2)]E[dL]C[Api](DOTA)LIC[X1][dE](NH(1-deoxy-D-glucityl))-NH2; linker 6-10 via Pyridine(2,6-diCH2)), the IC50 was below 10 nM. For the molecule `CC[C@H](C)[C@@H]1NC(=O)[C@H](CC(C)C)NC(=O)[C@H](CCCCNC(=O)CN2CCN(CC(=O)O)CCN(CC(=O)O)CCN(CC(=O)O)CC2)NC(=O)[C@@H](NC(=O)[C@@H](CC(C)C)NC(=O)[C@H](CCC(=O)O)NC(=O)[C@@H]2C[C@@H](N)CN2C(=O)[C@H](Cc2c[nH]c3ccc(Cl)cc23)NC(=O)[C@H](Cc2c[nH]c3ccccc23)NC(=O)[C@H](CC(=O)O)NC(=O)CCCC(=O)NC[C@H](O)[C@@H](O)[C@H](O)[C@H](O)CO)CSCc2cccc(n2)CSC[C@@H](C(=O)NC2CCN(CC(=O)N[C@H](CCC(=O)NC[C@H](O)[C@@H](O)[C@H](O)[C@H](O)CO)C(N)=O)CC2)NC1=O` [GIP-024, AGLU-Glutar-Asp-Trp-5Clw-Tap-Glu-leu-[Cys(2Lut)-Lys(DOTA)-Leu-Ile-Cys]-APAc-glu(AGLU)-NH2] ({NH(1-deoxy-D-glucityl)-Glutaryl}-DW[Trp(5-Cl)][Pro(4R-NH2)]E[dL]CK(DOTA)LIC[X1][dE](NH(1-deoxy-D-glucityl))-NH2; linker 7-11 via Pyridine(2,6-diCH2)), the IC50 was below 10 nM.

Staying with this experiment, now noted: pIC50 Category, competition with 20 nM GIP-057, 4° C., 1 hour.
The molecule `CC[C@H](C)[C@@H]1NC(=O)[C@H](CC(C)C)NC(=O)C2(CCN(C(=O)CN3CCN(CC(=O)O)CCN(CC(=O)O)CCN(CC(=O)O)CC3)CC2)NC(=O)[C@@H](NC(=O)[C@@H](CC(C)C)NC(=O)[C@H](CCC(=O)O)NC(=O)[C@@H]2C[C@@H](N)CN2C(=O)[C@H](Cc2c[nH]c3ccc(Br)cc23)NC(=O)[C@H](Cc2c[nH]c3ccccc23)NC(=O)[C@H](CC(=O)O)NC(=O)CN2CCC(NC(=O)CCCC(=O)NC[C@H](O)[C@@H](O)[C@H](O)[C@H](O)CO)CC2)CSCc2cccc(n2)CSC[C@@H](C(=O)NC2CCN(CC(=O)N[C@H](CCC(=O)NC[C@H](O)[C@@H](O)[C@H](O)[C@H](O)CO)C(N)=O)CC2)NC1=O` [GIP-014, AGLU-Glutar-APAc-Asp-Trp-5Brw-Tap-Glu-leu-[Cys(2Lut)-Apc(DOTA)-Leu-Ile-Cys]-APAc-glu(AGLU)-NH2] ({NH(1-deoxy-D-glucityl)-Glutaryl}-[X1]DW[Trp(5-Br)][Pro(4R-NH2)]E[dL]C[Api](DOTA)LIC[X1][dE](NH(1-deoxy-D-glucityl))-NH2; linker 8-12 via Pyridine(2,6-diCH2)) returned an IC50 below 10 nM.
